How the values were obtained:
KAI3 (IL-2 2.5 ng/mL) [1] = assay: drug sensitivity score (DSS) (DSS units); higher = more sensitive; extreme values may be limits of the assay; conditions: 72 h
[2] = test system: normal primary NK cells, pool 1 (3 donors), resting (IL-2 0 ng/mL); assay: as above; conditions: 72 h
KHYG-1 (IL-2 2.5 ng/mL) [3] = assay: as above; conditions: 72 h
YT (IL-2 2.5 ng/mL) [4] = assay: as above; conditions: 72 h
DERL-7 (IL-2 2.5 ng/mL) [5] = assay: as above; conditions: 72 h
NK-92 (IL-2 2.5 ng/mL) [6] = assay: as above; conditions: 72 h
[7] = test system: normal primary NK cells, pool 3 (3 donors) (IL-2 2.5 ng/mL); assay: as above; conditions: 72 h
[8] = test system: normal primary NK cells, pool 2 (3 donors) (IL-2 2.5 ng/mL); assay: as above; conditions: 72 h
[9] = test system: normal primary NK cells, pool 1 (3 donors) (IL-2 2.5 ng/mL); assay: as above; conditions: 72 h
NK-YS (IL-2 2.5 ng/mL) [10] = assay: as above; conditions: 72 h
NKL (IL-2 2.5 ng/mL) [11] = assay: as above; conditions: 72 h
SNK-6 (IL-2 2.5 ng/mL) [12] = assay: as above; conditions: 72 h
IMC-1 (IL-2 20 ng/mL) [13] = assay: as above; conditions: 72 h
KAI3 (IL-2 2.5 ng/mL) [14] = assay: percent inhibition of viability; higher = more inhibition; conditions: 72 h
[15] = test system: normal primary NK cells, pool 1 (3 donors), resting (IL-2 0 ng/mL); assay: as above; conditions: 72 h
KHYG-1 (IL-2 2.5 ng/mL) [16] = assay: as above; conditions: 72 h
YT (IL-2 2.5 ng/mL) [17] = assay: as above; conditions: 72 h
DERL-7 (IL-2 2.5 ng/mL) [18] = assay: as above; conditions: 72 h
NK-92 (IL-2 2.5 ng/mL) [19] = assay: as above; conditions: 72 h
[20] = test system: normal primary NK cells, pool 3 (3 donors) (IL-2 2.5 ng/mL); assay: as above; conditions: 72 h
[21] = test system: normal primary NK cells, pool 2 (3 donors) (IL-2 2.5 ng/mL); assay: as above; conditions: 72 h
[22] = test system: normal primary NK cells, pool 1 (3 donors) (IL-2 2.5 ng/mL); assay: as above; conditions: 72 h
NK-YS (IL-2 2.5 ng/mL) [23] = assay: as above; conditions: 72 h
NKL (IL-2 2.5 ng/mL) [24] = assay: as above; conditions: 72 h
SNK-6 (IL-2 2.5 ng/mL) [25] = assay: as above; conditions: 72 h
IMC-1 (IL-2 20 ng/mL) [26] = assay: as above; conditions: 72 h
[27] = test system: normal NK cells expanded with K562-aAPC; assay: as above; conditions: 72 h, IL-2 2.5 ng/mL
Description: (§1)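 Drug sensitivity and resistance testing on K562-aAPC-expanded normal NK cells: 5 concentrations (10-fold steps over a 10,000-fold range), 72 h at 37 °C, viability by CellTiter-Glo normalised to DMSO and benzethonium chloride controls; DSS from the fitted curve.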

[28] = test system: normal NK cells expanded with K562-aAPC; assay: drug sensitivity score (DSS) (DSS units); higher = more sensitive; extreme values may be limits of the assay; conditions: 72 h; IL-2 2.5 ng/mL
Description: as §1

COc1ccc(COc2cc3oc(=O)c4cc(C(C)O)ccc4c3cc2OC)cc1 (configuration not stated) [Palomid-529] (max concentration tested 10000 nM)
Conditions	drug sensitivity score
DERL-7 (IL-2 2.5 ng/mL) [5]	0.82
IMC-1 (IL-2 20 ng/mL) [13]	0
KAI3 (IL-2 2.5 ng/mL) [1]	3.78
KHYG-1 (IL-2 2.5 ng/mL) [3]	4.78
NK-92 (IL-2 2.5 ng/mL) [6]	8.66
NK-YS (IL-2 2.5 ng/mL) [10]	3.86
NKL (IL-2 2.5 ng/mL) [11]	5.94
SNK-6 (IL-2 2.5 ng/mL) [12]	0
YT (IL-2 2.5 ng/mL) [4]	4.52
[2]	0
[7]	0
[8]	0
[9]	0
[28]	0

percent inhibition of viability [%]
Conditions	1 nM	10 nM	100 nM	1000 nM	10000 nM
DERL-7 (IL-2 2.5 ng/mL) [18]	-6.43	-4.11	-0.12	1.25	21.1
IMC-1 (IL-2 20 ng/mL) [26]	-5.32	-4.51	2.75	4.92	7.18
KAI3 (IL-2 2.5 ng/mL) [14]	-1.34	0.71	-2.91	8.03	46.9
KHYG-1 (IL-2 2.5 ng/mL) [16]	1.15	-4.29	-3.13	9.18	59.6
NK-92 (IL-2 2.5 ng/mL) [19]	-6.63	-14.2	2.8	30.5	83.4
NK-YS (IL-2 2.5 ng/mL) [23]	-3.04	-9.05	-5.45	9.61	44.8
NKL (IL-2 2.5 ng/mL) [24]	-6.62	-2.59	6.05	30.5	33.3
SNK-6 (IL-2 2.5 ng/mL) [25]	-15.9	-23.8	-10.8	8.45	5.08
YT (IL-2 2.5 ng/mL) [17]	-2.49	-9.33	-3.82	12.3	49.4
[15]	-31.1	-17.8	-2.41	-12.2	10.7
[20]	-14.4	-4.43	2.41	-2.08	5.65
[21]	-5.4	-5.23	-8.91	-7.52	4.06
[22]	-7.97	-4.09	6.27	8.93	4.45
[27]	-9.29	-6.42	-4.58	4.67	5.9

COc1ccc(-c2nc(N3CCOCC3)c3sc(CN(C)c4ncc(C(=O)NO)cn4)cc3n2)cn1 [CUDC-907] (max concentration tested 10000 nM)
Conditions	drug sensitivity score
DERL-7 (IL-2 2.5 ng/mL) [5]	46.5
IMC-1 (IL-2 20 ng/mL) [13]	35.3
KAI3 (IL-2 2.5 ng/mL) [1]	43.4
KHYG-1 (IL-2 2.5 ng/mL) [3]	44.4
NK-92 (IL-2 2.5 ng/mL) [6]	42.9
NK-YS (IL-2 2.5 ng/mL) [10]	37.1
NKL (IL-2 2.5 ng/mL) [11]	43.8
SNK-6 (IL-2 2.5 ng/mL) [12]	37.9
YT (IL-2 2.5 ng/mL) [4]	34.6
[2]	38.4
[7]	36.7
[8]	37.7
[9]	38
[28]	37.1

percent inhibition of viability [%]
Conditions	1 nM	10 nM	100 nM	1000 nM	10000 nM
DERL-7 (IL-2 2.5 ng/mL) [18]	23.5	99.7	100	100	99.7
IMC-1 (IL-2 20 ng/mL) [26]	-4.89	34.3	100	101	100
KAI3 (IL-2 2.5 ng/mL) [14]	52.6	75.5	102	104	98.9
KHYG-1 (IL-2 2.5 ng/mL) [16]	16.1	94.5	103	103	98.7
NK-92 (IL-2 2.5 ng/mL) [19]	23.2	83.5	102	103	97
NK-YS (IL-2 2.5 ng/mL) [23]	6.56	55.9	101	103	99
NKL (IL-2 2.5 ng/mL) [24]	56.5	77	103	104	99.2
SNK-6 (IL-2 2.5 ng/mL) [25]	0.83	63.5	99.8	100	100
YT (IL-2 2.5 ng/mL) [17]	5.94	27.4	103	104	99.1
[15]	15.9	72.7	90.1	91	91.7
[20]	-5.77	56.8	97.2	96.7	98.1
[21]	1.42	74.2	94.2	94	94.8
[22]	2.74	68.2	96.4	97.7	97.2
[27]	10.6	55.4	100	99.9	99.9

COc1cc2c(cc1-c1c(C)noc1C)ncc1[nH]c(=O)n([C@H](C)c3ccccn3)c12 [I-BET151] (max concentration tested 10000 nM)
Conditions	drug sensitivity score
DERL-7 (IL-2 2.5 ng/mL) [5]	17.4
IMC-1 (IL-2 20 ng/mL) [13]	6.36
KAI3 (IL-2 2.5 ng/mL) [1]	7.74
KHYG-1 (IL-2 2.5 ng/mL) [3]	14.1
NK-92 (IL-2 2.5 ng/mL) [6]	1.57
NK-YS (IL-2 2.5 ng/mL) [10]	11.1
NKL (IL-2 2.5 ng/mL) [11]	12.4
SNK-6 (IL-2 2.5 ng/mL) [12]	16.1
YT (IL-2 2.5 ng/mL) [4]	8.36
[2]	7.37
[7]	6.22
[8]	8.63
[9]	9.37
[28]	6.57

percent inhibition of viability [%]
Conditions	1 nM	10 nM	100 nM	1000 nM	10000 nM
DERL-7 (IL-2 2.5 ng/mL) [18]	-3.21	-1.77	20	81.5	100
IMC-1 (IL-2 20 ng/mL) [26]	-10.4	-6.13	-13.8	11.4	80.4
KAI3 (IL-2 2.5 ng/mL) [14]	-1.82	-7.24	-5.5	36.7	60.8
KHYG-1 (IL-2 2.5 ng/mL) [16]	-6.56	-3.86	2.8	72	98.6
NK-92 (IL-2 2.5 ng/mL) [19]	-10.1	-10.2	-33.2	-7	39.9
NK-YS (IL-2 2.5 ng/mL) [23]	-6.04	0.41	9.82	50.3	86
NKL (IL-2 2.5 ng/mL) [24]	-4.89	-7.31	11.6	58.9	75
SNK-6 (IL-2 2.5 ng/mL) [25]	-9.22	-7.3	19.2	71.4	58.4
YT (IL-2 2.5 ng/mL) [17]	-4.09	-3.54	-0.4	36.2	69.4
[15]	11.1	15.2	12.9	26.3	69
[20]	0.13	-4.21	7.82	12.9	73.7
[21]	-6.96	-4.14	1.63	30.1	81.5
[22]	4.94	14.1	16.8	34.1	86.3
[27]	-4.2	-5.61	-3.72	17.1	70.7
